Measurements taken from patent US4536571A, “Selenium-containing platinum compound” (priority 1983, dated 1985).

What was measured:
[1] = LD50 of Selenium Compounds; details: mouse, in vivo, ip; intraperitoneal route, BDF1 male mice
Method: Our studies were carried out in BDF1 male mice weighing approximately 25 grams. All solutions were freshly were daily and given by the intraperitoneal route.

[2] = test system: Cisplatin induced nephrotoxicity (blood urea nitrogen); assay: BUN determination in Cisplatin-treated mice, sodium selenite time course (Table 1); assay type: in vivo, BDF1 mice
Method: (§1) BUN of the mice which have been administered a platinum complex increases due to the platinum poisoning in the kidney. […] The method of negating platinum toxicity of the present invention will be illustrated in more detail by way of Examples later.
(§2) Sodium selenite was administered to the peritoneal cavities of the mice at a dosage of 6.3 mg/kg. […] BUN of the mice was determined on the fourth day from the date of the administration. […] BUN of these control groups was also determined.
*^1 Average BUN value of mice which was determined on the fourth day
*^3 The figure in parentheses means the number of dead mice.

[3] = test system: Cisplatin induced nephrotoxicity (blood urea nitrogen); assay: BUN determination in Cisplatin-treated mice, sodium selenite dose series (Table 3); assay type: in vivo, BDF1 mice
Method: as §1
BUN of the mice was dertermined on the fourth day from the date of administration and on the eleventh day from the date of the administration. […] BUN of these control groups was also determined.

[4] = test system: Cisplatin induced nephrotoxicity (blood urea nitrogen); assay: BUN determination in Cisplatin-treated mice, sodium selenite time course (Table 2); assay type: in vivo, BDF1 mice; details: for number of dead mice: fourth day
Method: as §1, §2

[5] = test system: cadmium toxicity; details: in vivo; cited from earlier work
[6] = test system: nephrotoxic effects of Cisplatin; details: female rats; 750 mg/kg intraperitoneally or 100 mg/kg intravenously; cited from earlier work
[7] = sodium selenite 6.3 mg/kg i.p. 2 hours before Cisplatin 14 mg/kg i.p.
[8] = sodium selenite 6.3 mg/kg i.p. 4 hours before Cisplatin 14 mg/kg i.p.
[9] = sodium selenite 6.3 mg/kg i.p. simultaneously with Cisplatin 14 mg/kg i.p.
[10] = sodium selenite 1 mg/kg i.p. 2 hours before Cisplatin 14 mg/kg i.p.
[11] = sodium selenite 2 mg/kg i.p. 2 hours before Cisplatin 14 mg/kg i.p.
[12] = sodium selenite 4 mg/kg i.p. 2 hours before Cisplatin 14 mg/kg i.p.
[13] = sodium selenite 6 mg/kg i.p. 2 hours before Cisplatin 14 mg/kg i.p.
[14] = sodium selenite 8 mg/kg i.p. 2 hours before Cisplatin 14 mg/kg i.p.
[15] = sodium selenite 6.3 mg/kg i.p. 3 hours before Cisplatin 14 mg/kg i.p.
[16] = sodium selenite 6.3 mg/kg i.p. 6 hours before Cisplatin 14 mg/kg i.p.

SMILES: O=[Se](=O)(O)O [sodium selenate]
- LD50 [1]: 5.25 to 5.75 mg/kg

SMILES: N[C@@H](C[Se][Se]C[C@H](N)C(=O)O)C(=O)O [selenocystine]
- LD50 [1]: 4 mg/kg

SMILES: O=[Se](O)O [Sodium selenite, sodium selenite]
- number of dead mice ([2]; fourth day, sodium selenite 6.3 mg/kg i.p. 2 hours before Cisplatin 14 mg/kg i.p.): 2
- BUN (≥30) on the fourth day, mice ([2]; sodium selenite 6.3 mg/kg i.p. 1 hour after Cisplatin 14 mg/kg i.p.): 5/5
- BUN (≥30) on the fourth day, mice [2, 7]: 1/3
- BUN (≥30) on the fourth day, mice [2, 8]: 4/5
- BUN (≥30) on the fourth day, mice [2, 9]: 2/5
- BUN (≥30) on the fourth day, mice ([2]; sodium selenite 6.3 mg/kg only, i.p.): 0/5
- LD50 [1]: 3.25 to 3.5 mg/kg
- number of dead mice ([3]; eleventh day, sodium selenite 2 mg/kg i.p. 2 hours before Cisplatin 14 mg/kg i.p.): 1
- number of dead mice ([3]; eleventh day, sodium selenite 4 mg/kg i.p. 2 hours before Cisplatin 14 mg/kg i.p.): 2
- number of dead mice ([3]; eleventh day, sodium selenite 6 mg/kg i.p. 2 hours before Cisplatin 14 mg/kg i.p.): 1
- number of dead mice ([3]; eleventh day, sodium selenite 8 mg/kg i.p. 2 hours before Cisplatin 14 mg/kg i.p.): 1
- number of dead mice ([3]; fourth day, sodium selenite 4 mg/kg i.p. 2 hours before Cisplatin 14 mg/kg i.p.): 1
- number of dead mice ([3]; fourth day, sodium selenite 8 mg/kg i.p. 2 hours before Cisplatin 14 mg/kg i.p.): 1
- BUN (≥30) on the eleventh day, mice [3, 10]: 1/5
- BUN (≥30) on the fourth day, mice [3, 10]: 3/5
- BUN (≥30) on the eleventh day, mice [3, 11]: 0/4
- BUN (≥30) on the fourth day, mice [3, 11]: 1/5
- BUN (≥30) on the eleventh day, mice [3, 12]: 0/3
- BUN (≥30) on the fourth day, mice [3, 12]: 1/4
- BUN (≥30) on the eleventh day, mice [3, 13]: 0/4
- BUN (≥30) on the fourth day, mice [3, 13]: 1/5
- BUN (≥30) on the eleventh day, mice [3, 14]: 0/4
- BUN (≥30) on the fourth day, mice [3, 14]: 1/4
- number of dead mice [4, 15]: 1
- number of dead mice [4, 8]: 1
- number of dead mice [4, 16]: 1
- number of dead mice [4, 9]: 1
- BUN (≥30) on the fourth day, mice ([4]; sodium selenite 6.3 mg/kg i.p. 1 hour before Cisplatin 14 mg/kg i.p.): 3/5
- BUN (≥30) on the fourth day, mice [4, 7]: 1/5
- BUN (≥30) on the fourth day, mice [4, 15]: 1/4
- BUN (≥30) on the fourth day, mice [4, 8]: 2/4
- BUN (≥30) on the fourth day, mice [4, 16]: 2/4
- BUN (≥30) on the fourth day, mice [4, 9]: 2/4

SMILES: [Se] [selenium]
- cadmium induced testicular damage [5]: prevents

SMILES: CCN(CC)C(=S)[S-].[Na+] [sodium diethyldithiocarbamate]
- nephrotoxic effects of Cisplatin [6]: effectively inhibited
